For the test, the target named is T1, Serine/threonine-protein kinase ULK2 (Homo sapiens, UniProt Q8IYT8).
T1 sequence (Q8IYT8 whole entry): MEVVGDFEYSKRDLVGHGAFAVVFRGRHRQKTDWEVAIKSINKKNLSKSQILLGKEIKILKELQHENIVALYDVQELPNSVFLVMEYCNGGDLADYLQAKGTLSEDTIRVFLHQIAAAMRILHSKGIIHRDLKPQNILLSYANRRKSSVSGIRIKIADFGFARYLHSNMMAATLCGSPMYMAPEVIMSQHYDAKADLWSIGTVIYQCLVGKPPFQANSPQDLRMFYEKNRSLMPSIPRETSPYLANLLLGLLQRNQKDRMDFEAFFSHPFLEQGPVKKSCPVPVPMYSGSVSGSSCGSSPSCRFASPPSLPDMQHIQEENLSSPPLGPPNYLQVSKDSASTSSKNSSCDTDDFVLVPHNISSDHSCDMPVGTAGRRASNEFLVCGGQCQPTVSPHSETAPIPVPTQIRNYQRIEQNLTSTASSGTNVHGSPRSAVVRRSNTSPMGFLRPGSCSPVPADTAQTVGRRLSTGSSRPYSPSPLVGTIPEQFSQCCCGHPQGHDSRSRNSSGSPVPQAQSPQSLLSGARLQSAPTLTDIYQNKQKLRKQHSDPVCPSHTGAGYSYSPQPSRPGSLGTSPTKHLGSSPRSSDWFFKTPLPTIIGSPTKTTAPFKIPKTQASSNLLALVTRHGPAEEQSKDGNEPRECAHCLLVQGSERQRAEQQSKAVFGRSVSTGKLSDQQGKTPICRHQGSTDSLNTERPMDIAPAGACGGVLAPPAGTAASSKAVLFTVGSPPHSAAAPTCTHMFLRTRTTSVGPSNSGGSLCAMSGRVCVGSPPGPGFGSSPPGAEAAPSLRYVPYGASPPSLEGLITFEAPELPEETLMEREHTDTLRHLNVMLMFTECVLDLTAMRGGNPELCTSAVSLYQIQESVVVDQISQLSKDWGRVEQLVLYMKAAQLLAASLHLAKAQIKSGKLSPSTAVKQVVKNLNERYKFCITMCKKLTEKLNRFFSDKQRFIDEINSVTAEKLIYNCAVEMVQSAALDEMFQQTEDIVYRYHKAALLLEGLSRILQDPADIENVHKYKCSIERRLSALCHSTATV
The experiment in a line: Not found.
Source text: Not found

pIC50: −log10 of the molar value.

With `CCC(CC)NC(=O)c1cc(-c2cnn3cc(N4CCNCC4)cnc23)cs1` [US20250059194, Example Table 1.9], the pIC50 was 6.49.

As a reminder, the pIC50 is the IC50 on a negative log10 scale, so that one unit is a factor of ten.

(Values after BindingDB's records for patent US20250059194 (Michigan State University, 2025).)
